Laboratory results taken from PubChem BioAssay (NCI).
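Five compound concentrations were applied to cells in 96-well plates for 48 hours; endpoints were derived by simple linear interpolation of the resulting dose-response curve. Here, GI50 denotes the concentration required for 50% inhibition of growth. TGI marks complete inhibition of growth.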

Tests used:
Assay in all cases: NCI-60 cell line screen, 48 h; in the data active means GI50 below about 0.43 µM; inactive means the rest
NCI/ADR-RES ovarian = tested on: NCI/ADR-RES ovarian
786-0 renal = tested on: 786-0 renal
OVCAR-3 ovarian = tested on: OVCAR-3 ovarian
U251 CNS = tested on: U251 CNS
NCI-H23 lung = tested on: NCI-H23 lung
ACHN renal = tested on: ACHN renal
OVCAR-8 ovarian = tested on: OVCAR-8 ovarian
UACC-62 melanoma = tested on: UACC-62 melanoma
COLO 205 colon = tested on: COLO 205 colon
MDA-MB-231 breast = tested on: MDA-MB-231 breast
SW-620 colon = tested on: SW-620 colon
SNB-75 CNS = tested on: SNB-75 CNS
HCC-2998 colon = tested on: HCC-2998 colon
RPMI-8226 leukemia = tested on: RPMI-8226 leukemia
SF-539 CNS = tested on: SF-539 CNS
HOP-62 NSCLC = tested on: HOP-62 NSCLC
UACC-257 melanoma = tested on: UACC-257 melanoma
HS 578T breast = tested on: HS 578T breast
BT-549 breast = tested on: BT-549 breast
UO-31 renal = tested on: UO-31 renal
RXF 393 renal = tested on: RXF 393 renal
NCI-H522 lung = tested on: NCI-H522 lung
A498 renal = tested on: A498 renal
DU-145 prostate = tested on: DU-145 prostate
LOX IMVI melanoma = tested on: LOX IMVI melanoma
SNB-19 CNS = tested on: SNB-19 CNS
CCRF-CEM leukemia = tested on: CCRF-CEM leukemia
MALME-3M melanoma = tested on: MALME-3M melanoma
HCT-15 colon = tested on: HCT-15 colon
HL-60(TB) leukemia = tested on: HL-60(TB) leukemia
T-47D breast = tested on: T-47D breast
SR leukemia = tested on: SR leukemia
KM12 colon = tested on: KM12 colon
NCI-H226 lung = tested on: NCI-H226 lung
HCT-116 colon = tested on: HCT-116 colon
SF-295 CNS = tested on: SF-295 CNS
SN12C renal = tested on: SN12C renal
HT29 colon = tested on: HT29 colon
TK-10 renal = tested on: TK-10 renal
OVCAR-5 ovarian = tested on: OVCAR-5 ovarian
SF-268 CNS = tested on: SF-268 CNS
MCF7 breast = tested on: MCF7 breast
IGROV1 ovarian = tested on: IGROV1 ovarian
MDA-MB-435 = tested on: MDA-MB-435
A549 NSCLC = tested on: A549 NSCLC
OVCAR-4 ovarian = tested on: OVCAR-4 ovarian
SK-MEL-2 melanoma = tested on: SK-MEL-2 melanoma
MOLT-4 leukemia = tested on: MOLT-4 leukemia
HOP-92 NSCLC = tested on: HOP-92 NSCLC
PC-3 prostate = tested on: PC-3 prostate
EKVX NSCLC = tested on: EKVX NSCLC
NCI-H460 lung = tested on: NCI-H460 lung
SK-MEL-5 melanoma = tested on: SK-MEL-5 melanoma
SK-OV-3 ovarian = tested on: SK-OV-3 ovarian
CAKI-1 renal = tested on: CAKI-1 renal
SK-MEL-28 melanoma = tested on: SK-MEL-28 melanoma
K-562 leukemia = tested on: K-562 leukemia

CCN(CC)S(=O)(=O)c1ccc(-c2nc(C(Cl)Cl)nc3cc(-c4ccc(F)cc4)nn23)cc1
9.43 µM: TGI (KM12 colon)
18.6 µM: TGI (PC-3 prostate)
3.41 µM: TGI (RXF 393 renal)
5.47 µM: TGI (HOP-92 NSCLC)
4.15 µM: TGI (HCC-2998 colon)
12.8 µM: TGI (SF-295 CNS)
10.1 µM: TGI (A549 NSCLC)
14.4 µM: TGI (U251 CNS)
3.79 µM: TGI (RPMI-8226 leukemia)
3.07 µM: TGI (NCI-H460 lung)
6.65 µM: TGI (HL-60(TB) leukemia)
> 100 µM: TGI (NCI/ADR-RES ovarian) | TGI (786-0 renal) | TGI (OVCAR-8 ovarian) | TGI (UACC-62 melanoma) | TGI (SW-620 colon) | TGI (SNB-75 CNS) | TGI (HOP-62 NSCLC) | TGI (UACC-257 melanoma) | TGI (BT-549 breast) | TGI (NCI-H522 lung) | TGI (LOX IMVI melanoma) | TGI (SNB-19 CNS) | TGI (CCRF-CEM leukemia) | TGI (MALME-3M melanoma) | TGI (HCT-15 colon) | TGI (T-47D breast) | TGI (SR leukemia) | TGI (NCI-H226 lung) | TGI (HCT-116 colon) | TGI (SN12C renal) | TGI (OVCAR-5 ovarian) | TGI (SF-268 CNS) | TGI (MCF7 breast) | TGI (IGROV1 ovarian) | TGI (MDA-MB-435) | TGI (OVCAR-4 ovarian) | TGI (SK-MEL-2 melanoma) | TGI (MOLT-4 leukemia) | TGI (SK-MEL-5 melanoma) | TGI (SK-OV-3 ovarian) | TGI (K-562 leukemia)
4.7 µM: TGI (A498 renal)
4.77 µM: TGI (HT29 colon)
8.72 µM: TGI (TK-10 renal)
8.88 µM: TGI (SF-539 CNS)
8.99 µM: TGI (UO-31 renal)
13.3 µM: TGI (CAKI-1 renal)
6.57 µM: TGI (EKVX NSCLC)
inactive: GI50 (NCI/ADR-RES ovarian) 2.24 µM | GI50 (786-0 renal) 5.37 µM | GI50 (OVCAR-3 ovarian) 1.15 µM | GI50 (U251 CNS) 2.21 µM | GI50 (NCI-H23 lung) 2.49 µM | GI50 (ACHN renal) 1.16 µM | GI50 (OVCAR-8 ovarian) 3.94 µM | GI50 (UACC-62 melanoma) 4.03 µM | GI50 (COLO 205 colon) 2.02 µM | GI50 (MDA-MB-231 breast) 2.01 µM | GI50 (SW-620 colon) 1.41 µM | GI50 (SNB-75 CNS) 11.7 µM | GI50 (HCC-2998 colon) 1.89 µM | GI50 (RPMI-8226 leukemia) 0.733 µM | GI50 (SF-539 CNS) 2.24 µM | GI50 (HOP-62 NSCLC) 3.21 µM | GI50 (UACC-257 melanoma) 5.51 µM | GI50 (HS 578T breast) 3.56 µM | GI50 (BT-549 breast) 18.5 µM | GI50 (UO-31 renal) 2.27 µM | GI50 (RXF 393 renal) 1.54 µM | GI50 (NCI-H522 lung) > 100 µM | GI50 (A498 renal) 1.33 µM | GI50 (DU-145 prostate) 1.34 µM | GI50 (LOX IMVI melanoma) 6.37 µM | GI50 (SNB-19 CNS) 3.7 µM | GI50 (CCRF-CEM leukemia) > 100 µM | GI50 (MALME-3M melanoma) > 100 µM | GI50 (HCT-15 colon) 1.32 µM | GI50 (HL-60(TB) leukemia) 1.58 µM | GI50 (T-47D breast) 2.94 µM | GI50 (SR leukemia) 2.69 µM | GI50 (KM12 colon) 1.89 µM | GI50 (NCI-H226 lung) 3.77 µM | GI50 (HCT-116 colon) 1.73 µM | GI50 (SF-295 CNS) 2.29 µM | GI50 (SN12C renal) 15.7 µM | GI50 (HT29 colon) 1.55 µM | GI50 (TK-10 renal) 2.99 µM | GI50 (OVCAR-5 ovarian) 3.04 µM | GI50 (SF-268 CNS) 5.14 µM | GI50 (MCF7 breast) 2.66 µM | GI50 (IGROV1 ovarian) 3.38 µM | GI50 (MDA-MB-435) 3.02 µM | GI50 (A549 NSCLC) 2.52 µM | GI50 (OVCAR-4 ovarian) 3.71 µM | GI50 (SK-MEL-2 melanoma) > 100 µM | GI50 (MOLT-4 leukemia) 8.19 µM | GI50 (HOP-92 NSCLC) 2 µM | GI50 (PC-3 prostate) 2.61 µM | GI50 (EKVX NSCLC) 2.28 µM | GI50 (NCI-H460 lung) 0.923 µM | GI50 (SK-MEL-5 melanoma) > 100 µM | GI50 (SK-OV-3 ovarian) 4.09 µM | GI50 (CAKI-1 renal) 2.38 µM | GI50 (SK-MEL-28 melanoma) 2.73 µM | GI50 (K-562 leukemia) 1.83 µM
93.2 µM: TGI (HS 578T breast)
20.6 µM: TGI (NCI-H23 lung)
10.8 µM: TGI (SK-MEL-28 melanoma)
7.27 µM: TGI (MDA-MB-231 breast)
3.57 µM: TGI (ACHN renal)
2.98 µM: TGI (DU-145 prostate)
2.87 µM: TGI (OVCAR-3 ovarian)
6.16 µM: TGI (COLO 205 colon)
